Assay results published in patent EP0388909A2, “Thiazole compounds, processes for the preparation thereof and pharmaceutical composition comprising the same” (FUJISAWA PHARMACEUTICAL CO., LTD., priority 1989, dated 1990).
Counter-ions that a name gives are not always drawn.

Columns and labels:
cyclooxygenase = molecular target: T1, cyclooxygenase (Oryctolagus cuniculus, UniProt O97554); assay: Effect on malondialdehyde (MDA) production in rabbit platelets; format: cell-based; conditions: dose required to inhibit the production of malondialdehyde by 50%; washed rabbit PRP, arachidonic acid added; read-out: IC₅₀
T1 construct: Washed rabbit PRP (900 µl) was preincubated with drug solution; endogenous in cells; host or cells: washed rabbit platelets (PRP)
T1 sequence (O97554 31-606): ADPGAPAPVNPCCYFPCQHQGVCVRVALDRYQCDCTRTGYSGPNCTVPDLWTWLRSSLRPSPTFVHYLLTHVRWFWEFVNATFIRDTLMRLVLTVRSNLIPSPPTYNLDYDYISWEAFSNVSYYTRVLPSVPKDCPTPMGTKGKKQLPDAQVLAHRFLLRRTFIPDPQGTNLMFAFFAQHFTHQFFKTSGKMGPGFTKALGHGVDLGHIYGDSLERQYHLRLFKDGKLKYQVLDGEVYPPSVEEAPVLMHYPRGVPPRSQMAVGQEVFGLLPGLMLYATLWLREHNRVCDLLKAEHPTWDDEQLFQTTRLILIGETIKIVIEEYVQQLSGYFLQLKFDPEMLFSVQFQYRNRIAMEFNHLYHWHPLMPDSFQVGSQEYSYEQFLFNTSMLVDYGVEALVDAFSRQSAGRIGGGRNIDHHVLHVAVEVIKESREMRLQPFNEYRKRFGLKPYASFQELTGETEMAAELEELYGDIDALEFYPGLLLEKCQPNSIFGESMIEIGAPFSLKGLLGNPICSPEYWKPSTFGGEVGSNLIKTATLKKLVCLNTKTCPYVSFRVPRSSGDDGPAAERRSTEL
Description: Washed rabbit PRP (900 µl) was preincubated with drug solution (dissolved in dimethyl sulfoxide) (100 µl) at 37°C for 5 minutes. Then, 2.5 mM arachidonic acid solution (20 µl) was added to the reaction mixture. After 3 minutes, thiobarbiturate reagent (1000 µl) was added, and the reaction mixture was heated in a boiled water. After centrifugation at 1500 g for 10 minutes, the absorbance of suparnatant was measured at 532 nm. This test was carried out to see inhibitory activity of the test compound against the activity of cyclooxygenase. Activity of the test compound was expressed as IC₅₀ values i.e. doses required to inhibit the production of malondialdehyde by 50%.

PRP = assay: Platelet aggregation ex vivo (arachidonic acid induced, PRP after oral dosing); format: in vivo; conditions: Cavia porcellus, 6 h, Dose 1.0 mg/kg oral, blood collected six hours after administration, arachidonic acid final 50 µM as aggregation inducer, male Hartley guinea-pigs
Description: Male Hartley guinea-pigs weighing about 300 g were used after 24 hours fasting. Six hours after oral administration of the test compound or vehicle of test compound (control), blood was collected into a tube containing 0.1 vol. of 3.8% sodium citrate and prepared platelet rich plasma (PRP).
To the […] of PRP, 5 µl of arachidonic acid (final 50 µM) was added as an aggregation inducer. Aggregation was measured by using an aggregometer (NKK HEMA-TRACER 1).

isolated rat aorta = assay: Relaxation effect on isolated rat aorta (KCl-induced contraction); conditions: dose required to relax the isolated rat aorta by 50%; contraction induced by KCl 30 mM; maximum relaxation by 10⁻⁴M papaverine; read-out: ED₅₀
Description: Helical strip of rat thoracic aorta was suspended in the organ bath containing Tyrode solution gassed with 95% O₂ - 5% CO₂ at 37°C under 0.5 g load. Contraction was induced by addition of KCℓ solution (final concentration was 30 mM). […] Activities of the test compound were expressed as ED₅₀ values i.e. doses required to relax the isolated rat aorta by 50%.

human washed platelets = assay: Thrombin induced aggregation in human washed platelets; format: cell-based; conditions: Concentration 1.0 x 10⁻⁵ M; thrombin final conc. 0.3-0.5 U/ml
Description: Blood was drawn from healthy volunteers into a plastic tube containing 1/10 volume of 3.8% sodium citrate and centrifuged at 120 g for 10 minutes to obtain platelet rich plasma (PRP). An equal volume of 25 mM Tris-HCl buffer (pH 7.4) containing 130 mM NaCl and 1.5 mM EDTA (buffer A) was added to the PRP, mixed and centrifuged at 1500 g for 10 minutes. The platelet pellet was suspended in buffer A and centrifuged at 1500 g for 5 minutes. The platelets were resuspended in 25 mM Tris-HCl buffer (pH 7.4) containing 130 mM NaCl and 0.3 mM EDTA and recentrifuged at 1500 g for 5 minutes. The platelets were finally suspended in Tyrode solution containing 0.3 % bovine serum albumin and the platelet count was adjusted to 3 x 10⁸/ml. To 247.5 µl of platelet suspension, 2.5 µl of drug solution was added and incubated for 2 minutes at 37°C prior to addition of thrombin solution (final conc. 0.3-0.5 U/ml). Platelet aggregation was turbidometrically measured using a HEMA-TRACER 1.

Compound: COc1ccc(-c2nc(CNC(C)=O)sc2-c2ccc(OC)cc2)cc1 [Example 1, 2-acetylaminomethyl-4,5-bis(4-methoxyphenyl)thiazole]
- IC50 (cyclooxygenase): 0.015 µM

Compound: COc1ccc(-c2nc(CNC(=O)C3=NNC(=O)CC3)sc2-c2ccc(OC)cc2)cc1 [Example 15, 4,5-bis(4-methoxyphenyl)-2-{(6-oxo-1,4,5,6-tetrahydropyridazin-3-yl)carbonyiaminomethyl}thiazole]
- inhibition at 1 mg/kg (PRP): 100%
- EC50 (isolated rat aorta): 7.3 µM

Compound: COc1ccc(-c2nc(CNC(=O)c3cccnc3)sc2-c2ccc(OC)cc2)cc1 [Example 19, 4,5-bis(4-methoxyphenyl)-2-(nicotinoylaminomethyl)thiazole hydrochloride]
- EC50 (isolated rat aorta): 8.2 µM

Compound: CNC(=O)NCc1nc(-c2ccc(OC)cc2)c(-c2ccc(OC)cc2)s1 [Example 24, 4,5-Bis(4-methoxyphenyl)-2-(3-methylureidomethyl)thiazole]
- Inhibition of the aggregation (%) (human washed platelets): 71.3%
